# In patent US20220248744A1, “NICOTINE MATERIALS, METHODS OF MAKING SAME, AND USES THEREOF” (The Research Foundation for the State University of New York, priority 2019, published 2022):
# Test: not given
# Settings: UV λ=300 nm, air flow, 1H NMR
row,SMILES,degradation after 24 hours of UV irradiation
1,"O=C(O)c1cc(O)c(C(=O)O)cc1O [2,5-Dihydroxyterepthalic Acid]","no 2,5-dihydroxyterephthalic acid degradation"
2,"CN1CCC[C@H]1c1cccnc1.O=C(O)c1cc(O)c(C(=O)O)cc1O [(S)-nicotinium 2,5-dihydroxyterephthalate]",no degradation
3,"CN1CCC[C@H]1c1cccnc1.O=C(O)c1c(O)cccc1O [(S)-nicotinium 2,6-dihydroxybenzoate]",no degradation
4,CN1CCCC1c1cccnc1.O=C(O)CC(O)C(=O)O [(S)-nicotinium D-malate],no degradation
5,CN1CCCC1c1cccnc1.O.O=C(O)c1cc(=O)[nH]c(=O)[nH]1 [(S)-nicotinium orotate monohydrate],no degradation
6,"CN1CCC[C@H]1c1cccnc1.O=C(O)C[C@H](O)C(=O)O [monoclinic P21 (S)-nicotinium L-malate, (S)-nicotinium L-malate]",no degradation
7,"CN1CCC[C@H]1c1cccnc1.O=C(O)c1ccccc1O [monoclinic P21 (S)-nicotinium salicylate, (S)-nicotinium salicylate]",no degradation
8,O=C(O)c1cc(=O)[nH]c(=O)[nH]1 [orotic acid],no orotic acid degradation
9,CN1CCC[C@H]1c1cccnc1.O=C(O)C[C@H](O)C(=O)O [orthorhombic P212121 (S)-nicotinium L-malate],no degradation

# Test: not given
# Settings: cited from earlier work
row,SMILES,pKa (Strongest Acidic)
1,"O=C(O)c1c(O)cc(O)cc1O [2,4,6-Trihydroxybenzoic Acid]",1.83
2,"O=C(O)c1c(O)cccc1O [2,6-Dihydroxybenzoic Acid]",1.51
3,Nc1cccc(C(=O)O)c1O [3-Aminosalicylic Acid],2.90
4,COc1ccc(C(=O)O)c(O)c1 [4-Methoxysalicylic Acid],3.09
5,"O=C(O)c1cc(Cc2ccc(O)c(C(=O)O)c2)ccc1O [5,5′-Methylenedisalicylic Acid]",2.94
6,COc1ccc(O)c(C(=O)O)c1 [5-Methoxysalicylic acid],2.52
7,NC(C(=O)O)C(=O)O [Aminomalonic Acid],0.45
8,COC(=O)[C@H](Cc1ccccc1)NC(=O)[C@@H](N)CC(=O)O [Aspartame],3.53
9,C[N+](C)(C)CC(=O)O [Betaine],2.26
10,O=C(/C=C/c1ccc(O)c(O)c1)O[C@@H](C(=O)O)[C@@H](O)C(=O)O [Caftaric Acid],2.96
11,C[N+](C)(C)CC(O)CC(=O)[O-] (stereo not shown) [Carnitine],4.20
12,O=C(O)C=Cc1ccccc1 [Cinnamic acid],4.01
13,CC(O)(CC(=O)O)C(=O)O (stereo not shown) [Citramalic Acid],3.35
14,OC[C@@H](O)[C@@H](O)CO [Erythritol],13.04
15,O=C(O)/C=C/C(=O)O [Fumaric Acid],3.55
16,O=C(O)[C@H](O)[C@@H](O)[C@@H](O)[C@H](O)CO [Galactonic Acid],3.39
17,O=C[C@H](O)[C@@H](O)[C@@H](O)[C@H](O)C(=O)O [Galacturonic Acid],3.24
18,O=C(O)/C=C\C(=O)O [Maleic Acid],3.05
19,CC1CCC(C(C)C)C(O)C1 (stereo not shown) [Menthol],19.55
20,COc1cccc(C(=O)O)c1 [Meta-Anisic Acid],3.84
21,COc1ccccc1C(=O)O [Ortho-Anisic Acid],3.73
22,COc1ccc(C(=O)O)cc1 [Para-Anisic Acid],4.37
23,CC(=O)C(=O)O [Pyruvic Acid],2.93
24,C=C1C[C@@]23CC[C@H]4[C@@](C)(CCC[C@@]4(C)C(=O)O)[C@@H]2CC[C@]1(O)C3 [Steviol],4.70
25,O=C(O)CCC(=O)O [Succinic Acid],3.55
26,OC[C@H]1O[C@H](O[C@]2(CCl)O[C@H](CCl)[C@@H](O)[C@@H]2O)[C@H](O)[C@@H](O)[C@H]1Cl [Sucralose],1.91
27,OC[C@H]1O[C@@](CO)(O[C@H]2O[C@H](CO)[C@@H](O)[C@H](O)[C@H]2O)[C@@H](O)[C@@H]1O [Sucrose],11.84
29,O=C(O)C(O)C(=O)O [Tartronic Acid],2.42
30,OC[C@@H](O)[C@H](O)[C@@H](O)CO [Xylitol],12.76

# Test: Aerosolization/Vaporization Analysis (iStick Pico with Sai atomizer, syringe as lung analog)
# Settings: heating in bucket coil; decarboxylation of the acid coformer
row,SMILES,degradation product formed during vaporization
1,"CN1CCC[C@H]1c1cccnc1.O=C(O)c1ccccc1O [monoclinic P21 (S)-nicotinium salicylate, (S)-nicotinium salicylate]",phenol was likely also formed

# Test: Thermal analysis (differential scanning calorimetry / melting point): thermodynamic stability
# Type: physicochemical
# Settings: based on DSC thermal analysis
# Experimental: Differential Scanning calorimetry (DSC). A differential scanning calorimeter, model DSC Q200 (TA Instrument, USA) was used to measure the thermal transitions of the samples. About 10 mg of each synthesized compound was placed into an aluminum pan and sealed. Each sample, except (S)-nicotinium 2,6-Dihydroxybenzoate, was scanned from 0 to 150° C. at 20° C./min under nitrogen flow for at least 2 full cycles. (S)-nicotinium 2,6-Dihydroxybenzoate was scanned from 0 to 175° C. at 20° C./min under nitrogen flow for at least 2 full cycles.
# Melting Point (MP): A Stuart SMP10 melting point apparatus was utilized to measure the melting point of each of the synthesized compounds. 4 replicates were run for each compound. The plateau temperature was set to 100° C. for each of the salts, except (S)-nicotinium D-malate, and then ramped at 2° C./minute. The plateau temperature was set to 80° C. for the (S)-nicotinium D-malate salt and ramped at 2° C./minute.
# Thermal Analysis. […] This was confirmed via differential scanning calorimetry (DSC) by a very broad endotherm 116.4° C. […] This was confirmed by DSC where in the sharp endotherm at 123.5° C. indicated the melting of this (S)-nicotinium L-malate salt. […] This was confirmed via DSC, wherein the sharp endotherm at 95.2° C. The orthorhombic P212121 (S)-nicotinium DL-malate was initially observed as having a broad melting point of 76-78° C. The was confirmed via DSC wherein a melting point of 77.8° C., though with a very broad curve. […] Monoclinic P21 (S)-nicotinium 2,6-dihydroxybenzoate salt had the highest melting observed thus far. The sharp endotherm at 158.5° C. confirmed the observed melting point. Monoclinic P21 (S)-nicotinium 2,5-dihydroxyterephthalate was observed initially as having a tight melting point range of 196-198° C.
row,SMILES,thermodynamic / thermal stability
1,"CN1CCC[C@H]1c1cccnc1.O=C(O)c1cc(O)c(C(=O)O)cc1O [(S)-nicotinium 2,5-dihydroxyterephthalate]",highest observed thermal stability
2,"CN1CCC[C@H]1c1cccnc1.O=C(O)c1c(O)cccc1O [(S)-nicotinium 2,6-dihydroxybenzoate]",highest observed thermal stability
3,CN1CCCC1c1cccnc1.O=C(O)CC(O)C(=O)O [(S)-nicotinium D-malate],thermodynamically less stable than either of the (S)-nicotinium L-malate salts
4,"CN1CCC[C@H]1c1cccnc1.O=C(O)C[C@H](O)C(=O)O [monoclinic P21 (S)-nicotinium L-malate, (S)-nicotinium L-malate]",most thermodynamically favored and stable malate salt
5,CN1CCC[C@H]1c1cccnc1.O=C(O)C[C@H](O)C(=O)O [orthorhombic P212121 (S)-nicotinium L-malate],more thermodynamically stable than the orthorhombic P212121 (S)-nicotinium D-malate

# Same assay, conditions: based on DSC thermal analysis; listed as Monoclinic P21 (S)-nicotinium L-malate
row,SMILES,thermodynamic / thermal stability
1,"CN1CCC[C@H]1c1cccnc1.O=C(O)C[C@H](O)C(=O)O [monoclinic P21 (S)-nicotinium L-malate, (S)-nicotinium L-malate]",thermodynamically more stable than the orthorhombic P212121 (S)-nicotinium L-malate
